The numbers were not newly measured in patent publication US20250129016A1, “[…] FOR RADI[…] ARENES AND USE THEREOF” (THE UNIVERSITY OF NORTH CAROLINA AT CHAPEL HILL, priority 2023, published 2025), which cites them from elsewhere.

The conditions of this data set: previously reported.

For the compound `COc1cc2c(c(OC)c1OC)-c1ccc(OC)c(=O)cc1[C@@H](NC(C)=O)CC2` [39a, Colchicine], the route of excretion entry was “excreted primarily through the biliary system, intestines, and kidneys”.
